Experiments:
[1] = tested on: mononuclear phagocytes; experiment: ApoA-I mediated cellular phospholipid efflux (3H-choline labelled phospholipids); format: cell-based, Human; conditions: men and women, percent of basal unstimulated efflux
Description: Cellular Lipid Efflux. Human peripheral blood cells were isolated from lithium-heparin treated blood samples of adult, healthy volunteers. The peripheral blood mononuclear cell fraction was separated by density gradient centrifugation over Ficoll-Histopaque […] (Sigma). Cells positive for CD2, CD7, CD16, CD19 and CD56 were removed by appropriate magnetic beads (Dynal) leaving > 80% pure monocytes. Isolated monocytes were then cultured at a density of 1.5x10^5 cells/mL in polystyrene culture dishes (100x15mm Petri dish, Falcon) in a serum-free macrophage medium (Macrophage-SFM, Gibco Life Technologies) supplemented with 50ng/mL human recombinant M-CSF (R&D Systems). After an overnight incubation cells were cholesterol loaded for 24 hrs by addition of enzymatically modified LDL (E-LDL; 40 µg/ml), which was prepared as previously described (31). The incubation medium was further supplemented with ^14C-cholesterol (1.5 µCi/ml) and ^3H-choline (10µCi/ml) in order to label cellular cholesterol and choline containing phospholipids. In a subset of experiments cells were stimulated with 10 µM forskolin during the labeling period. After 24 hrs monocytes were washed and incubated for 17 hrs with or without 10 µg/ml ApoA-I (Sigma) in macrophage medium containing 0.1 % bovine serum albumin and 50ng/mL M-CSF. After incubation the media were removed and centrifuged at 800 x g to precipitate any detached cells. Cells were lysed in 0.2% SDS. Lipids were extracted by liquid extraction according to the method of Bligh and Dyer (13). ^3H and ^14C radioactivities of the total lipid extracts were measured by liquid scintillation counting in order to distinguish between ^3H labeled phospholipids and ^14C-cholesterol. Lipid efflux was calculated as percentage of disintegrations per minute (dpm) in medium divided by the sum of dpm recovered from medium and cells. The ApoA-I specific efflux is expressed a percent of basal unstimulated efflux observed in serum-free macrophage medium without ApoA-I.

[2] = tested on: mononuclear phagocytes; experiment: ApoA-I mediated cellular cholesterol efflux (14C-cholesterol, E-LDL loaded monocytes); format: cell-based, Human; conditions: men and women, percent of basal unstimulated efflux
Description: Cellular Lipid Efflux. Human peripheral blood cells were isolated from lithium-heparin treated blood samples of adult, healthy volunteers. The peripheral blood mononuclear cell fraction was separated by density gradient centrifugation over Ficoll-Histopaque […] (Sigma). Cells positive for CD2, CD7, CD16, CD19 and CD56 were removed by appropriate magnetic beads (Dynal) leaving > 80% pure monocytes. Isolated monocytes were then cultured at a density of 1.5x10^5 cells/mL in polystyrene culture dishes (100x15mm Petri dish, Falcon) in a serum-free macrophage medium (Macrophage-SFM, Gibco Life Technologies) supplemented with 50ng/mL human recombinant M-CSF (R&D Systems). After an overnight incubation cells were cholesterol loaded for 24 hrs by addition of enzymatically modified LDL (E-LDL; 40 µg/ml), which was prepared as previously described (31). […] Lipids were extracted by liquid extraction according to the method of Bligh and Dyer (13). ^3H and ^14C radioactivities of the total lipid extracts were measured by liquid scintillation counting in order to distinguish between ^3H labeled phospholipids and ^14C-cholesterol. Lipid efflux was calculated as percentage of disintegrations per minute (dpm) in medium divided by the sum of dpm recovered from medium and cells. […]

[3] = tested on: human fibroblasts; experiment: Cell cycle arrest in fibroblasts; format: cell-based; conditions: result in words
[4] = tested on: neutral sphingomyelinase; experiment: Ceramide formation from sphingomyelin; format: cell-based; conditions: result in words
[5] = tested on: IL-1β secretion; experiment: IL-1β processing and secretion; format: cell-based; conditions: result in words

Compound	Phospholipid efflux: ApoA-I [10 µg/ml]+ 24 h pretreatment with forskolin [10 µM] ([1]; 596A/A)	Phospholipid efflux: ApoA-I [10 µg/ml]+ 24 h pretreatment with forskolin [10 µM] ([1]; 2589G/G)	Phospholipid efflux: ApoA-I [10 µg/ml]+ 24 h pretreatment with forskolin [10 µM] ([1]; wt/wt 596G/G, 2589A/A)	Cholesterol efflux: ApoA-I [10 µg/ml]+ 24 h pretreatment with forskolin [10 µM] ([2]; 596A/A)	Cholesterol efflux: ApoA-I [10 µg/ml]+ 24 h pretreatment with forskolin [10 µM] ([2]; wt/wt 596G/G, 2589A/A)	G2-phase cell cycle arrest [3]	ceramide formation from sphingomyelin mediated by neutral sphingomyelinase [4]	Caspase I mediated processing of pro-IL-1β [5]	release of mature IL-1β [5]
C=C[C@@]1(C)CC(=O)[C@]2(O)[C@@]3(C)[C@@H](O)CCC(C)(C)[C@@H]3[C@H](O)[C@H](OC(C)=O)[C@@]2(C)O1 [forskolin]	136.7 ± 12.8%	124.5 ± 25.8%	135.4 ± 20.2%	126.7 ± 37.4%	121.8 ± 16.4%	–	–	–	–
COc1ccc(Cl)cc1C(=O)NCCc1ccc(S(=O)(=O)NC(=O)NC2CCCCC2)cc1 [glyburide]	–	–	–	–	–	releases human fibroblasts from G2-phase cell cycle arrest	inhibits	inhibits	inhibits
